# According to paper PMC8246065 (The EMBO Journal, 2021):
# Legend:
# NOD1 and NOD2 = experiment: Immunoprecipitation with lipid-coated beads; type: binding, human; settings: HeLa NOD1-GFP / NOD2-GFP lysates, room temperature 2 h
# Description: HeLa NOD1 or NOD2 cells were grown overnight and afterward treated with doxycycline overnight to induce NOD1 or NOD2 expression. Cells of one 10‐cm dish were lysed with 500 µl of lysis buffer (25 mM Tris–HCl, pH 7.5, 150 mM NaCl, 1 mM EDTA, 1% NP‐40, and 5% glycerol) supplemented with protease inhibitors (Roche, 05892791001) on ice for 20 min. Lysates were centrifuged at 16,000 × g at 4°C for 10 min, and supernatants were mixed with GFP‐Trap agarose (ChromoTek GmbH, gta‐20) overnight at 4°C. Afterward, agaroses were washed twice with PBS and boiled with sample buffer for SDS–PAGE. For lipid‐coated beads IP, lipid‐coated beads were incubated with supernatants for 2 h at room temperature and then washed with lysis buffer for three times and boiled with sample buffer for SDS–PAGE.
# NLRP3 = molecular target: T1, NLRP3 (Homo sapiens, UniProt Q96P20); experiment: MST binding to NLRP3-GFP; settings: Fig 6C
# T1 construct: Addgene (plasmid only) 73955
# Description: Binding of NOD1, NOD2, GFP, or NLRP3‐GFP to different ligands was measured by microscale thermophoresis (MST). 20 nM GFP or GFP‐tagged proteins in MST buffer (PBS pH 7.4, containing 0.5% NP‐40 and 10 mM DTT) was incubated with different concentrations of ligands. Immediately, samples were loaded into standard glass capillaries (NanoTemper) and thermophoresis analysis was performed on a NanoTemper Monolith NT.115 instrument (40% LED, 80% MST power) at 22°C. A laser on‐time of 30 s and a laser off‐time of 5 s were used. The experiment was performed in triplicates, and the MST curves were fitted using NT analysis software to obtain the K d values.
# [1] = test system: HeLa inducible NOD1 or NOD2 cells; experiment: ELISA of IL6/IL8 in supernatants of HeLa inducible NOD1 or NOD2 cells; type: cell-based, human
# Description: (§1) To differentiate THP‐1 into macrophage‐like cells, THP‐1 cells were stimulated with 50 ng/ml phorbol 12‐myristate 13‐acetate (Sigma‐Aldrich, P8139) for 24 h and then incubated with fresh medium for another 48 h. […] To induce NOD1 or NOD2 expression, HeLa NOD1 or NOD2 cells were treated with 0.5 µg/ml or 0.25 µg/ml doxycycline for at least 16 h, respectively. All cells have been checked for mycoplasma contamination regularly. Bone marrow‐derived macrophages (BMDMs) were obtained from tibial and femural bones and generated with DMEM containing 20% L929 cell supernatant, 10% FBS, 5% heat‐inactivated horse serum, 1 mM sodium pyruvate, and 2 mM L‐glutamine. For BMDM stimulation experiments, BMDMs were treated with IFN‐γ (20 ng/ml) overnight before stimulation.
# [2] = test system: HEK293T NOD1/2 KO cells transfected with NOD1 or NOD2 mutants; experiment: IL8 ELISA of HEK293T cells transfected with NOD1/NOD2 mutants; type: cell-based, human
# Description: as §1
# The mutagenesis was performed with Q5® site‐directed mutagenesis kit (E0554, NEB) according to the manufacturer's instructions. The primers used in this study were as follows: NOD1 E157A F: 5′‐[…]gcg[…]‐3′, NOD1 E157A R: 5′‐[…]‐3′, NOD1 D161A F: 5′‐[…]gcg[…]‐3′, NOD1 D161A R: 5′‐[…]‐3′, NOD1 D203A F: 5′‐[…]gcg[…]‐3′, D203A R: 5′‐[…]‐3′, L218A F: 5′‐[…]gcg[…]‐3′, L218A R: 5′‐[…]‐3′, R237A F: 5′‐[…]gcg[…]‐3′, R237A R: 5′‐[…]‐3′, H257A F: 5′‐[…]gcg[…]‐3′, H257A R: 5′‐[…]‐3′, E267A F: 5′‐[…]gcg[…]‐3′, E267A R: 5′‐[…]‐3′, H290A F: 5′‐[…]gcg[…]‐3′, H290A R: 5′‐[…]‐3′, E306A F: 5′‐[…]gcg[…]‐3′, E306A R: 5′‐[…]‐3′, K324A F: 5′‐[…]gcg[…]‐3′, K324A R: 5′‐[…]‐3′, K328A F: 5′‐[…]gcg[…]‐3′, K328A R: 5′‐[…]‐3′, R340A F: 5′‐[…]gcg[…]‐3′, R340A R: 5′‐[…]‐3′, R344A F: 5′‐[…]gcg[…]‐3′, R344A R: 5′‐[…]‐3′, R350A F: 5′‐[…]gcg[…]‐3′, R350A R: 5′‐[…]‐3′, D372A F: 5′‐[…]gcg[…]‐3′, D372A R: 5′‐[…]‐3′, R373A F: 5′‐[…]gcg[…]‐3′, R373A R: 5′‐[…]‐3′, R399A F: 5′‐[…]gcg[…]‐3′, R399A R: 5′‐[…]‐3′, D423A F: 5′‐[…]gcg[…]‐3′, D423A R: 5′‐[…]‐3′, R435A F: 5′‐5′‐[…]gcg[…]‐3′, R435A R: 5′‐[…]‐3′, Q484A F: 5′‐[…]gcg[…]‐3′, Q484A R: 5′‐[…]‐3′, L495A F: 5′‐[…]gcg[…]‐3′, L495A R: 5′‐[…]‐3′, E514A F: 5′‐[…]gcg[…]‐3′, E514A R: 5′‐[…]‐3′, H517A F: 5′‐[…]gcg[…]‐3′, H517A R: 5′‐[…]‐3′, L540A F: 5′‐[…]gcg[…]‐3′, L540A R: 5′‐[…]‐3′, F544A F: 5′‐[…]gcg[…]‐3′, and F544A R: 5′‐[…]‐3′.
# HeLa NOD1 or NOD2 cells = experiment: Western blot analysis in HeLa NOD1 or NOD2 cells; type: cell-based, human
# Description: Cells were lysed in RIPA buffer supplemented with protease inhibitor cocktail and PhosSTOP (Roche, 4906837001) on ice for 10 min. After centrifugation at 16,000 × g for 10 min, supernatants were heated with SDS sample buffer at 95°C for 10 min. Proteins were separated on 4–15% SDS gels (Bio‐Rad, 4561086) and transferred onto nitrocellulose membranes. The membranes were incubated with primary antibodies at 4°C overnight and secondary antibodies at RT for 1 h, respectively. All antibodies were diluted in PBS supplemented with 0.1% Tween‐20 (Sigma‐Aldrich, P1379) and 5% BSA. Membranes were developed with ECL detection Kit (Thermo Fisher Scientific, 34094) and exposed with ChemiDoc (Bio‐Rad). The antibody against ACTB/β‐actin was used as loading control.
# T1 sequence (Q96P20 whole entry): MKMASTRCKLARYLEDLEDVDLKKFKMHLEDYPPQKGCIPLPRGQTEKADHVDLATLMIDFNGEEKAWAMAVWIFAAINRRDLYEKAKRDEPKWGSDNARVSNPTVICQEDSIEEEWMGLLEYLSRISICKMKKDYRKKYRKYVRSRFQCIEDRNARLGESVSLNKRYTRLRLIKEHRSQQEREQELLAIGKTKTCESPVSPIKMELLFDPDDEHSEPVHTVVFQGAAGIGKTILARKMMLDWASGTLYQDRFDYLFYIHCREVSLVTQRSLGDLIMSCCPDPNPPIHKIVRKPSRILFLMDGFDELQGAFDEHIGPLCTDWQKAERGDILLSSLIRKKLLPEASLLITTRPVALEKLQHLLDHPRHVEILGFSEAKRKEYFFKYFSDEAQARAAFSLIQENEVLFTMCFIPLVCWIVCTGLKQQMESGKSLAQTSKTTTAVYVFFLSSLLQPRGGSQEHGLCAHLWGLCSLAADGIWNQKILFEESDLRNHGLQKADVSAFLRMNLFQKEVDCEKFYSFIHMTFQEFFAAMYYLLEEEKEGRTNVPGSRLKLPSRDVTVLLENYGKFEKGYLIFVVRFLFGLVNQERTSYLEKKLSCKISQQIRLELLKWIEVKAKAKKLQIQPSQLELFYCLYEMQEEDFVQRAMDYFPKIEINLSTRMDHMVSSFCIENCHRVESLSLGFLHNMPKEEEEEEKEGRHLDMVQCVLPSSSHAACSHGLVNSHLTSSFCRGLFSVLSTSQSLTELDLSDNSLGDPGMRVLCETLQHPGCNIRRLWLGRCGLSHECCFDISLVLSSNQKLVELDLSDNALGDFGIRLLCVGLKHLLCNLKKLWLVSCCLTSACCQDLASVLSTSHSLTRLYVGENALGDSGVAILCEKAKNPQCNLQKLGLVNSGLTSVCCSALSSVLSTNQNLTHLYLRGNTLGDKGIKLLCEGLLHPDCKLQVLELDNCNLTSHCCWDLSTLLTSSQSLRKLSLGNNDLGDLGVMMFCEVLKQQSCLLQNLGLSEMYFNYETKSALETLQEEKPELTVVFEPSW
smiles,measurement,setting,value
"CCCCCCCCCCCCC/C=C/[C@@H](O)[C@@H](N)COP(=O)(O)O [S1P, sphingosine‐1‐phosphate]",Immunoprecipitation of NOD1 and NOD2 with lipid-coated beads,NOD1 and NOD2,specifically immunoprecipitated
same,Direct interaction with NLRP3 by MST,NLRP3,not observed
same,IL6 production compared to iE-DAP or MDP at the same concentration,"[1]; 0.5, 5 or 20 µM with digitonin (5 µg/ml), Fig EV4E,F",higher IL6 production
same,IL6 production on co-stimulation vs single stimulation,"[1]; S1P (2 µM) with iE-DAP or MDP (3, 20, 50 µM), digitonin, 20 h",significantly higher IL6 production
same,IL6 or IL8 production,"[1]; cytosolic delivery with digitonin (5 µg/ml), 20 h",induced abundant IL6 or IL8 production
same,IL6 or IL8 production,"[1]; extracellular stimulation (absence of digitonin), S1P 10 µM",did not induce marked IL6 or IL8 production
same,IL8 production in cells expressing LRR-deficient NOD1/2 (NOD1/2∆LRR),"[2]; 20 µM with digitonin, 20 h",elevated
same,IL8 production in cells expressing NOD1/2 WT,"[2]; 20 µM with digitonin, 20 h",induced
same,IL8 production / activation in HEK293T cells expressing NOD2 1007fs,"[2]; 20 µM, 48 h, digitonin",increased
same,Activation (IL8) of NOD1 K328A or H517A,[2]; Fig EV5H,not
same,NOD1 or NOD2 degradation,"HeLa NOD1 or NOD2 cells; 20 µM with digitonin, Fig EV4G",did not induce NOD1 or NOD2 degradation
same,MAPK activation and NF-κB activation,HeLa NOD1 or NOD2 cells; cytosolic S1P 20 µM,triggered MAPK activation and NF‐κB activation
